Columns and labels:
[1] = target: T1, L1196M mutant ALK kinase (Homo sapiens, UniProt Q9UM73, L1196M); experiment: HTRF KinEASE-TK assay, inhibitory activity on L1196M mutant ALK kinase; format: biochemical; conditions: L1196M mutant ALK 1 ng/μl, substrate 1 μM, ATP 5 μM, 30° C. 35 minutes, read-out: Inhibition on ALK kinases (L1196M mutant), IC50
T1 construct: purchased Sino-US Crown Bioscience, Inc. batch number ALKm_20110923
Method in brief: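 HTRF TK assay: mutant kinase 1 ng/μl, substrate 1 μM, ATP 5 μM, 5 mM MgCl2, 1 mM DTT, 1% DMSO, 35 min at 30 °C. 665/615 ratio read; inhibition normalised to no-compound and 10.4 μM LDK-378 controls; IC50 from curve fit.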

[2] = tested on: Karpas-299 cell line; experiment: CellTiter-Glo cell proliferation inhibition on Karpas-299 cell line; format: cell-based; conditions: Homo sapiens, 96 h, Karpas-299 cells, 5000 cells/well, 4 days drug treatment
Method in brief: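 CellTiter-Glo luminescence measured after 4-day compound exposure (0.5% DMSO final) of Karpas-299 cells seeded at 5000/well in RPMI-1640 with 10% FBS, 37 °C, 5% CO2. IC50 derived from percent inhibition relative to vehicle wells.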

[3] = target: cytochrome P450 2C9 (Homo sapiens, UniProt P11712); experiment: Inhibitory activity on cytochrome P450 2C9; format: in vitro ADME; conditions: no significant inhibition
[4] = target: cytochrome P450 2C19 (Homo sapiens, UniProt P33261); experiment: Inhibitory activity on cytochrome P450 2C19; format: in vitro ADME; conditions: no significant inhibition
[5] = target: cytochrome P450 2D6 (Homo sapiens, UniProt P10635); experiment: Inhibitory activity on cytochrome P450 2D6; format: in vitro ADME; conditions: no significant inhibition
[6] = target: cytochrome P450 3A4 (Homo sapiens, UniProt P08684); experiment: Inhibitory activity on cytochrome P450 3A4; format: in vitro ADME; conditions: no significant inhibition
cytochrome P450 3A4, sequence (P08684 whole entry): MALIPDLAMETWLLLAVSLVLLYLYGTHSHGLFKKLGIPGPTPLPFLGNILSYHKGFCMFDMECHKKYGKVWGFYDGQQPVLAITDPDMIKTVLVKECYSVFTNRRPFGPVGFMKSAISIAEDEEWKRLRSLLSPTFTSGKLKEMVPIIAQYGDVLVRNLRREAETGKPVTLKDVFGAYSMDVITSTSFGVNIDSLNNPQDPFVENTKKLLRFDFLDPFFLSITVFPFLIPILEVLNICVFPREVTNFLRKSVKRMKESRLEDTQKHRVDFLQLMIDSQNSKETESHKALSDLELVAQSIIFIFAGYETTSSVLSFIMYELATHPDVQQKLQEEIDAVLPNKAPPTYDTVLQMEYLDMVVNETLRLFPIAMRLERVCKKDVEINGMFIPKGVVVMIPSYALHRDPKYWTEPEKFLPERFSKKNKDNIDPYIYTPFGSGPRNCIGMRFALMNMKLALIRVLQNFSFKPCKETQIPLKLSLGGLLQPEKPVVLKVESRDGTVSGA

cytochrome P450 2D6, sequence (P10635 whole entry): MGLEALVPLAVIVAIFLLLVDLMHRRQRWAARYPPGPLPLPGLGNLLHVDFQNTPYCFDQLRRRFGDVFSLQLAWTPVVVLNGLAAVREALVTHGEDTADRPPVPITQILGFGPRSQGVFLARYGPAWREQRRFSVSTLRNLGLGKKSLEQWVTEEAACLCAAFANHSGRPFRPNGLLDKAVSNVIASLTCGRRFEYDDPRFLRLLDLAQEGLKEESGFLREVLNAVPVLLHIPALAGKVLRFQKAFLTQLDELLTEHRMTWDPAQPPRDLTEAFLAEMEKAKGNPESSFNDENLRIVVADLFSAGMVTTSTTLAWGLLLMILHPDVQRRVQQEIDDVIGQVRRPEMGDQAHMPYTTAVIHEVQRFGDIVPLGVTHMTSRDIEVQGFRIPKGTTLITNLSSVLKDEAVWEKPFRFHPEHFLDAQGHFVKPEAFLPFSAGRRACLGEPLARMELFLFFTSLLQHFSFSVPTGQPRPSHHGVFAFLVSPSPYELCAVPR
cytochrome P450 2C19, sequence (P33261 whole entry): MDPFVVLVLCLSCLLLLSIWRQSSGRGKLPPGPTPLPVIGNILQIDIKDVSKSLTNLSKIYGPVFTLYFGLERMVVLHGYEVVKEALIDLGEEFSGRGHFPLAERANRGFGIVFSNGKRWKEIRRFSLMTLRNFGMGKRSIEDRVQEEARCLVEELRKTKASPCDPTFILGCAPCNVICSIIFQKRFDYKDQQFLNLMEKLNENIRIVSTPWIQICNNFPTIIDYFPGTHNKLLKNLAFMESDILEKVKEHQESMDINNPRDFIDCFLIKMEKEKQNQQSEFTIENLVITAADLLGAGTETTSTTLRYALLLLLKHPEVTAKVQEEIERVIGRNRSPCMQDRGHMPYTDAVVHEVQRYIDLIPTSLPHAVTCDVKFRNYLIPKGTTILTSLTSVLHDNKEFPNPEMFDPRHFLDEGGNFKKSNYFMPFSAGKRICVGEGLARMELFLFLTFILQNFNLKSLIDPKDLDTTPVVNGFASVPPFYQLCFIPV
cytochrome P450 2C9, sequence (P11712 whole entry): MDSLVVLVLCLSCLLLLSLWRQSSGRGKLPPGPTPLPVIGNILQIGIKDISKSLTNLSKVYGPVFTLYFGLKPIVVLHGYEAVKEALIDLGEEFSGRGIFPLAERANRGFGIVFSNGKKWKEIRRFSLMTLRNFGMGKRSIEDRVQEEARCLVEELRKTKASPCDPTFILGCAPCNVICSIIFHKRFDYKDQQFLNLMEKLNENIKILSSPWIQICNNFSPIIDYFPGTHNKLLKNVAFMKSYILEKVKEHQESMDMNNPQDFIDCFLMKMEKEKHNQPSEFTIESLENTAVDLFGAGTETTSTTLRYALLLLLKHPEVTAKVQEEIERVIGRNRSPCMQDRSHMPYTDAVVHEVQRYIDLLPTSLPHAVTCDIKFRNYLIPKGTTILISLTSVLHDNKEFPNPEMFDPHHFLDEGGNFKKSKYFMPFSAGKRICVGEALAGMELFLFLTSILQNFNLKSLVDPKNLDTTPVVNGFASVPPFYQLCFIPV
T1 sequence (Q9UM73 19-1620 L1196M): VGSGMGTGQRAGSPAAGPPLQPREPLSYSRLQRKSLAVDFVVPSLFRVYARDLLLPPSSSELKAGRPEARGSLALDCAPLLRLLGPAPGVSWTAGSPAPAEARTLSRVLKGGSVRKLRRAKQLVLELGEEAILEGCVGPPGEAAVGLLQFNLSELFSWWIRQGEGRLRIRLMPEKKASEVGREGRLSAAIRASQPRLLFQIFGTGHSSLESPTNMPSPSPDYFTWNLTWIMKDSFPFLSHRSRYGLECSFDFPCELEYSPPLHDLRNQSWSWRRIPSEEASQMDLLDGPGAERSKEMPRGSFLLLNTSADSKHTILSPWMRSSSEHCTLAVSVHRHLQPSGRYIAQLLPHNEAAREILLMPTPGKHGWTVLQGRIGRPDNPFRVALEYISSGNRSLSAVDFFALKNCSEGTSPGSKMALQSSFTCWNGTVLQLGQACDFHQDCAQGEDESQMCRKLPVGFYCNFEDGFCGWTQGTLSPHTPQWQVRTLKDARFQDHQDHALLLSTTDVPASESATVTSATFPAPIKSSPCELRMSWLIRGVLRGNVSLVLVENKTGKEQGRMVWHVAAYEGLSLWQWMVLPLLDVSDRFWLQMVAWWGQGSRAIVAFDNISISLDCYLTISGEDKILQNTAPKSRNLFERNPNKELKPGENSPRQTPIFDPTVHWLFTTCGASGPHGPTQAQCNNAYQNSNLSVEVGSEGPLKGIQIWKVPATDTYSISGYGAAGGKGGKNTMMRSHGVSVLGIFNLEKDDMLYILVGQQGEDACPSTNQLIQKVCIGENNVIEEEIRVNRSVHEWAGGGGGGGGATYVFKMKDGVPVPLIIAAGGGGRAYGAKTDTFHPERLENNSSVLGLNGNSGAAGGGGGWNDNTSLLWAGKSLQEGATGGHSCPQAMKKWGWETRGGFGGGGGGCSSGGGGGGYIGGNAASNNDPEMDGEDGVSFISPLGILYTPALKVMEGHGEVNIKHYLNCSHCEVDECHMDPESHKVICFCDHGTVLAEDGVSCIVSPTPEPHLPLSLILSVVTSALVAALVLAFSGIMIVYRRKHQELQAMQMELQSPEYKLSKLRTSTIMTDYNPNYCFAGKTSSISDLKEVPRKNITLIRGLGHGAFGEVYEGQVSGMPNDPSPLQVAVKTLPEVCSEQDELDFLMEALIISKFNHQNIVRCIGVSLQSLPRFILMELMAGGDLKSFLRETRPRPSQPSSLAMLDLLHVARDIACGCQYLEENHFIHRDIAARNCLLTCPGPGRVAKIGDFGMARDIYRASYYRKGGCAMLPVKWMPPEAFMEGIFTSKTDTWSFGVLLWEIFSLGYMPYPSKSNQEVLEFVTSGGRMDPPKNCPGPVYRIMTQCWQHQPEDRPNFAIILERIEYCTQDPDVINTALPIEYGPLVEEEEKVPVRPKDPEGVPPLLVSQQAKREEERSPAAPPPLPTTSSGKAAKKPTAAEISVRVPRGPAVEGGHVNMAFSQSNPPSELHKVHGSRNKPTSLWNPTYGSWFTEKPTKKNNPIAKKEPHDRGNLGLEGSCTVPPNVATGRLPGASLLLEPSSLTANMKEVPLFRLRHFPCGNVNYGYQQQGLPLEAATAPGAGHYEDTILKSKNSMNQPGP

SMILES	IC50 [1] [nM]	IC50 [2] [nM]	IC50 [3] [nM]	IC50 [4] [nM]	IC50 [5] [nM]	IC50 [6] [nM]
CC(C)CS(=O)(=O)c1nn(C)cc1Nc1nc(Nc2ccc(C3CCN(C)CC3)cc2OC2CC2)ncc1Cl [Final product 43]	12	26	> 10000	> 10000	> 10000	> 10000
Cc1cc(Nc2ncc(Cl)c(Nc3cn(C)nc3S(=O)(=O)C(C)C)n2)c(OC2CC2)cc1C1CCN(CCO)CC1 [Final product 133, 2-(4-(4-(5-chloro-4-(3-(isopropylsulfonyl)-1-methyl-1H-pyrazol-4-amino)pyrimidin-2-amino)-5-cyclopropoxy-2-methylphenyl)piperidin-1-yl) ethanol]	6	4	> 10000	> 10000	> 10000	> 10000
Cc1cc(Nc2ncc(Cl)c(Nc3cn(C)nc3S(=O)(=O)C(C)C)n2)c(OC2CC2)cc1C1CCN(CCN(C)C)CC1 [Final product 146, 5-chloro-N^2-(2-cyclopropoxy-4-(1-(2-(dimethylamino)ethyl)piperidin-4-yl)-5-methylphenyl)-N^4-(3-(isopropylsulfonyl)-1-methyl-1H-pyrazol-4-yl)-pyrimidin-2,4-diamine]	5	15	> 10000	> 10000	> 10000	> 10000
Cc1cc(Nc2ncc(Cl)c(Nc3cn(C)nc3S(=O)(=O)C(C)C)n2)c(OC2CC2)cc1C1CCN(C(=O)C(F)(F)F)CC1 [Final product 161, 1-trifluoroacetyl-4-(4-(5-chloro-4-(3-(isopropylsulfonyl)-1-methyl-1H-pyrazol-4-amino)pyrimidin-2-amine)-5-cyclopropoxy-2-methylphenyl)piperidine]	43	27	> 10000	> 10000	> 10000	> 10000
Cc1cc(Nc2ncc(Cl)c(Nc3cn(C)nc3S(=O)(=O)CC(C)C)n2)c(OC2CC2)cc1[C@H]1CC[C@H](NC2CC2)CC1 [Final product 180]	40	26	–	–	–	–
Cc1cc(Nc2ncc(Cl)c(Nc3cn(C)nc3S(=O)(=O)CC(C)C)n2)c(OC2CC2)cc1[C@H]1CC[C@H](NC(C)C)CC1 [Final product 182]	22	15	–	–	–	–
Cc1cc(Nc2ncc(Cl)c(Nc3cn(C)nc3S(=O)(=O)C(C)C)n2)c(OC2CC2)cc1[C@H]1CC[C@H](NC2CC2)CC1 [Final product 196]	18	9	–	–	–	–
CC(=O)N1CCN([C@H]2CC[C@H](c3cc(OC4CC4)c(Nc4ncc(Cl)c(Nc5cn(C)nc5S(=O)(=O)C(C)C)n4)cc3C)CC2)CC1 [Final product 204]	18	7	> 10000	> 10000	> 10000	> 10000
Cc1cc(Nc2ncc(Cl)c(Nc3cn(C)nc3S(=O)(=O)C(C)C)n2)c(OC2CC2)cc1C1=C(Cl)CN(C)CC1 [Final product 208, 5-chloro-N^2-[4-(5-chloro-1-methyl-1,2,3,6-tetrahydro-pyridin-4-yl)-2-cyclopropoxy-5-methyl-phenyl]-N^4-[1-methyl-3-(isopropylsulfonyl)-1H-pyrazol-4-yl]-pyrimidin-2,4-diamine]	36	35	–	–	–	–

More lines, in order of falling IC50 [1], values ahead:

IC50 [1] [nM]	IC50 [2] [nM]	IC50 [3] [nM]	IC50 [4] [nM]	IC50 [5] [nM]	IC50 [6] [nM]	SMILES
11	18	> 10000	> 10000	> 10000	> 10000	Cc1cc(Nc2ncc(Cl)c(Nc3cn(C)nc3S(=O)(=O)C(C)C)n2)c(OC2CC2)cc1C1CCN(S(C)(=O)=O)CC1 [Final product 167, 5-chloro-N^2-(2-cyclopropoxy-5-methyl-4-(1-methanesulfonyl-piperidin-4-yl)-phenyl)-N^4-(3-(isopropylsulfonyl)-1-methyl-1H-pyrazol-4-yl)pyrimidin-2,4-diamine]
10	15	> 10000	> 10000	> 10000	> 10000	CC(C)S(=O)(=O)c1nn(C)cc1Nc1nc(Nc2cc(Cl)c(C3CCN(C)CC3)cc2OC2CC2)ncc1Cl [Final product 47]
10	19	> 10000	> 10000	> 10000	> 10000	Cc1cc(Nc2ncc(Cl)c(Nc3cn(C)nc3S(=O)(=O)C(C)C)n2)c(OC2CC2)cc1C1CCN(C2COC2)CC1 [Final product 156]
9	14	> 10000	> 10000	> 10000	> 10000	CC(=O)N1CCC(c2cc(OC3CC3)c(Nc3ncc(Cl)c(Nc4cn(C)nc4S(=O)(=O)C(C)C)n3)cc2C)CC1 [Final product 160, 1-acetyl-4-(4-(5-chloro-4-(3-(isopropylsulfonyl)-1-methyl-1H-pyrazol-4-amino)pyrimidin-2-amine)-5-cyclopropoxy-2-methylphenyl)piperidine]
9	5	–	–	–	–	Cc1cc(Nc2ncc(Cl)c(Nc3cn(C)nc3S(=O)(=O)C(C)C)n2)c(OC2CC2)cc1[C@H]1CC[C@H](NC(C)C)CC1 [Final product 198]
8	10	–	–	–	–	Cc1cc(Nc2ncc(Cl)c(Nc3cn(C)nc3S(=O)(=O)C(C)C)n2)c(OC(C)C)cc1[C@H]1CC[C@H](NC(C)C)CC1 [Final product 188]
7	6	–	–	–	–	Cc1cc(Nc2ncc(Cl)c(Nc3cn(C)nc3S(=O)(=O)C(C)C)n2)c(OC2CC2)cc1[C@H]1CC[C@@H](N(C)C)CC1 [Final product 189]
6	–	> 10000	> 10000	> 10000	> 10000	CC(C)S(=O)(=O)c1nn(C2CC2)cc1Nc1nc(Nc2cc(F)c(C3CCN(C)CC3)cc2OC2CC2)ncc1Cl [Final product 46]
6	8	> 10000	> 10000	> 10000	> 10000	Cc1cc(Nc2ncc(Cl)c(Nc3cn(C)nc3S(=O)(=O)C(C)C)n2)c(OC2CC2)cc1C1CCN(C(=O)CC#N)CC1 [Final product 166, 1-cyano acetyl-4-(4-(5-chloro-4-(3-(isopropylsulfonyl)-1-methyl-1H-pyrazol-4-amino)pyrimidin-2-amine)-5-cyclopropoxy-2-methylphenyl)piperidine]
5	7	> 10000	> 10000	> 10000	> 10000	CC(C)S(=O)(=O)c1nn(C)cc1Nc1nc(Nc2ccc(C3CCN(C)CC3)cc2OC2CC2)ncc1Cl [Final product 40]
3	4	> 10000	> 10000	> 10000	> 10000	Cc1cc(Nc2ncc(Cl)c(Nc3cn(C)nc3S(=O)(=O)C(C)C)n2)c(OC2CC2)cc1C1CC(C)N(C)C(C)C1 (stereo not shown) [Final product 95]

Source: patent publication US10023593B2, “ALK kinase inhibitor, and preparation method and uses thereof” (BEIJING PEARL BIOTECHNOLOGY LIMITED LIABILITY COMPANY, priority 2014, dated 2018)
